Test results taken from PubChem BioAssay AID686998 (Broad Institute, 2013).
Where “and” joins values, the source holds several entries; their conditions need not be identical. Equal entries are not always repeated. Results filed as inconclusive are left out. Calls of active or inactive are those of the source.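 Rule for the calls: active = falling signal with fitted half-maximal potency no higher than twice the top valid tested dose; inconclusive = poor fit quality, or flat fit spanning -70% to -30%; inactive = potency over limit, rising signal, or flat fit inside 30%.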

Tested on: Cryptococcus neoformans growth, Alamar Blue, 24 h
Assay: fungal growth arrest, C. neoformans – Alamar Blue, cherry-picks, dose response (AID 686998)

Row | SMILES | IC50
1 | Fc1ccc(CNC(=S)NCc2cccc(Cl)c2)cc1 | 12.3 µM
2 | Cc1ccc(C(=O)NC(=S)Nc2ccccc2N2CCCC2)cc1[N+](=O)[O-] | 0.463 µM
3 | CC(C)NC(=O)Nc1ccc2c(c1)C(=O)N([C@@H](C)CO)C[C@@H](C)[C@@H](CN(C)C(=O)NC1CCCCC1)OCCCC[C@H](C)O2 | < 0.26 µM
4 | COC(=O)C1=C(C)N(Cc2ccc(Cl)cc2)C(=S)NC1c1ccc(Br)cc1 (stereo not drawn) | 14.7 µM
5 | O=C(NC(=S)Nc1ccccc1N1CCOCC1)c1ccc(Br)cc1 | 6.23 µM
6 | CC(=O)N[C@H]1CC[C@H](CCNC(=O)C2CCC2)O[C@@H]1CO | > 70 µM (inactive)
7 | O=C(NC(=S)Nc1ccccc1N1CCCC1)c1ccccc1[N+](=O)[O-] | 1.42 µM
8 | Cc1c(C(=O)NC(=S)Nc2ccccc2N2CCCC2)cccc1[N+](=O)[O-] | 2.71 µM
9 | COc1cccc(NC(=O)CN2CCN(S(=O)(=O)c3ccc(C(C)C)cc3)CC2)c1 | > 70 µM (inactive)
10 | O=C(NC(=S)NCC1COc2ccccc2O1)c1ccccc1 (stereo not drawn) | 11 µM
11 | Cc1ccc(C2CC(c3cccs3)=NN2C(=O)c2ccc(Br)o2)cc1 (stereo not drawn) | 0.375 µM
12 | O=C(COc1ccc2c(c1)CCC2)NCc1ccc(Cl)cc1 | 34.2 µM
13 | COc1cccc(CNC(=O)COc2ccc(C(=O)c3ccccc3)cc2)c1 | 21 µM
14 | Cc1cccc(-c2ccc([C@@H]3[C@@H](CO)N4CCCCN(S(=O)(=O)c5ccccc5C)C[C@@H]34)cc2)c1 | 2.62 µM
15 | CC(C)NC(=O)N(C)C[C@H]1Oc2c(NS(=O)(=O)c3ccc(Cl)cc3)cccc2C(=O)N([C@@H](C)CO)C[C@@H]1C | 41.8 µM
16 | O=C(CN1CCOCC1)N[C@@H]1CC[C@@H](CCNC(=O)C2CCC2)O[C@@H]1CO | 43.7 µM
17 | Cc1ccc(OCCn2c(=S)[nH]c3ccccc32)c(C(C)C)c1 | 0.913 µM
18 | CCCCNC(=S)N/N=C/c1ccc(C#N)cc1 | 2.73 µM
19 | COC(=O)C1=C(C)N(Cc2ccc(Br)cc2)C(=S)NC1c1ccc(F)cc1 (stereo not drawn) | 5.35 µM
20 | COc1ccc(CN(C)C[C@@H]2Oc3ccc(NS(C)(=O)=O)cc3CC(=O)N([C@H](C)CO)C[C@H]2C)cc1 | 48.6 µM
21 | O=C(C[C@@H]1CC[C@@H]2[C@H](COC[C@@H](O)CN2C(=O)Nc2ccc(Cl)cc2)O1)NC1Cc2ccccc2C1 | 6.79 µM
22 | CCCn1c(=S)[nH]c2cc(Cl)ccc21 | 22.9 µM
23 | O=C(NC(=S)Nc1ccccc1N1CCOCC1)c1ccccc1F | 20.9 µM

Row | SMILES | IC50
24 | C[C@H]1CN([C@@H](C)CO)C(=O)c2cc(-c3ccccc3)cnc2O[C@@H]1CN(C)C(=O)c1ccccn1 | 42.3 µM
25 | COc1cccc(NC(=S)NC(=O)Cc2ccc(Cl)cc2)c1 | 5.24 µM
26 | COC(=O)C1=C(C)N(CC(C)C)C(=S)NC1c1ccc(F)cc1 (stereo not drawn) | 20.3 µM
27 | CCOc1ccc(C(=O)NC(=S)Nc2ccccc2N2CCCCC2)cc1[N+](=O)[O-] | 3.11 µM
28 | Cc1cc(C(=O)Nc2cccc3c2O[C@@H](CN(C)S(=O)(=O)c2ccccc2)[C@@H](C)CN([C@@H](C)CO)C3=O)n(C)n1 | 61.2 µM
29 | O=C(NC(=S)Nc1ccc(Br)cc1)C1CCC1 | 15.8 µM
30 | CC(=O)c1cccc(NC(=S)NC2CCCCCCC2)c1 | 10.7 µM
31 | C[C@@H]1CN([C@H](C)CO)S(=O)(=O)c2ccc(-c3ccccc3)cc2O[C@H]1CN(C)C(=O)C1CCCCC1 | 65.5 µM
32 | O=C(c1cccnc1)N1C[C@H]2[C@@H](c3ccccc31)[C@@H](CO)N2C(=O)Nc1ccc(F)cc1 | 6.72 µM
33 | CCC(=O)N1[C@H](CO)[C@@H](c2ccc(-c3cccnc3)cc2)[C@@H]1CN(C)C(C)=O | 33.6 µM
34 | O=C(C[C@H]1CC[C@H]2[C@@H](COC[C@H](O)CN2C(=O)Nc2ccc3c(c2)OCO3)O1)N1CCN(c2ccccc2)CC1 | > 70 µM (inactive)
35 | COc1cccc(NC(=S)N2CCC(Cc3ccccc3)CC2)c1 | 8.22 µM
36 | COc1ccc(CN(C)C[C@H]2Oc3ccc(NS(C)(=O)=O)cc3CC(=O)N([C@@H](C)CO)C[C@H]2C)cc1 | 39.9 µM
37 | COc1cccc(S(=O)(=O)Nc2ccc3c(c2)[C@H]2C[C@@H](CC(=O)NC4CCCCC4)O[C@@H](CO)[C@H]2O3)c1 | 6.96 µM
38 | COC(=O)C1=C(C)N(Cc2ccc(Br)cc2)C(=S)NC1c1cccc(Cl)c1 (stereo not drawn) | 5.98 µM
39 | CN1c2ccc(-c3ccc(F)cc3)cc2[C@H]2[C@H](CCN2S(=O)(=O)c2cccc(F)c2)[C@H]1CO | 6.07 µM
40 | S=C(NCCCc1ccccc1)Nc1ccccc1 | 8.77 µM
41 | Cc1ccc2c(C)c(C(=O)N3CCN(Cc4ccccn4)CC3)oc2c1C | 67.4 µM
42 | S=C(Nc1cccc(Cl)c1)Nc1ccccc1Oc1ccccc1 | 13.2 µM
43 | C[C@H]1CN([C@@H](C)CO)C(=O)CCCn2cc(nn2)CO[C@@H]1CN(C)Cc1ccc(C(F)(F)F)cc1 | 30.7 µM
44 | O=C(NC(=S)NCC1COc2ccccc2O1)c1ccc(Cl)cc1 (stereo not drawn) | 6.31 µM
45 | CCC(=O)Nc1ccc2c(c1)C(=O)N(C)C[C@H](OC)[C@@H](C)CN[C@H](C)CO2 | > 70 µM (inactive)
46 | COC(=O)C1=C(C)N(Cc2ccc(F)cc2)C(=S)NC1c1ccccc1 (stereo not drawn) | 29.4 µM

Row | SMILES | IC50
47 | CNC[C@H]1Oc2cc(Br)ccc2S(=O)(=O)N([C@H](C)CO)C[C@H]1C | > 70 µM (inactive)
48 | COc1ccc(CN(C)C[C@@H]2Oc3ccc(NC(=O)C4CC4)cc3C(=O)N([C@@H](C)CO)C[C@H]2C)cc1 | 43.2 µM
49 | Cc1cccc(NC(=S)NN(Cc2ccccc2)c2ccccc2)c1C | 11.9 µM
50 | Fc1ccccc1CNC(=S)NCc1ccc(Cl)cc1 | 12.8 µM
51 | COc1cc(NC(=O)CN2CCN(S(=O)(=O)c3ccc(C(C)C)cc3)CC2)cc(OC)c1 | 59.4 µM
52 | C[C@H](CO)N1C[C@H](C)[C@@H](CN(C)Cc2ccc(Oc3ccccc3)cc2)Oc2ccc(NC(=O)Nc3ccc4c(c3)OCO4)cc2C1=O | > 70 µM (inactive)
53 | COc1ccc(NC(=S)NCc2ccccc2Cl)c(OC)c1 | 43.4 µM
54 | COC(=O)C1=C(C)N(Cc2ccccc2)C(=S)NC1c1cccc(Br)c1 (stereo not drawn) | 6.55 µM and 8.35 µM
55 | Cc1ccccc1NC(=S)NC(=O)CCc1ccccc1 | 5.62 µM
56 | CC(C)CC#Cc1cnc2c(c1)C(=O)N([C@@H](C)CO)C[C@@H](C)[C@@H](CN(C)C(=O)c1cccc(F)c1)O2 | 45.8 µM
57 | CC[C@H](C)[C@@H]1NC(=O)CNC(=O)c2csc(n2)[C@H](C(C)(C)O)OC(=O)C(C)(C)[C@H](CCCC(C)(Cl)Cl)OC(=O)c2csc1n2 | 2.16 µM
58 | C[C@@H]1CN([C@H](C)CO)C(=O)Cc2cc(NC(=O)CCCCCC(=O)Nc3ccccc3N)ccc2O[C@H]1CN(C)C(=O)Nc1ccccc1 | 4.69 µM
59 | CC12CC3CC(C)(C1)CC(C(=O)NC(=S)N1CCCCC1)(C3)C2 | 15.5 µM
60 | Cc1cc(C)c(NC(=O)CN2CCCCCC2)c(C)c1 | 0.858 µM
61 | O=C(C1CCOCC1)N1CC[C@@H]2[C@@H](CO)Nc3ccc(Br)cc3[C@@H]21 | > 70 µM (inactive)
62 | Cc1c(Cl)cccc1NC(=S)NCCc1ccc(Cl)cc1 | 5.38 µM
63 | O=C(C[C@@H]1C=C[C@@H](NC(=O)Nc2cc(F)ccc2F)[C@H](CO)O1)NCCCN1CCOCC1 | 68.3 µM
64 | O=C(C[C@H]1CC[C@@H]2[C@H](COC[C@H](O)CN2CC2CCOCC2)O1)NCc1ccc(Cl)cc1 | 70 µM
65 | CCOc1ccc(CNC(=S)NCc2ccc(OCC)cc2)cc1 | 8.87 µM
66 | CC(C)NC(=O)N(C)C[C@@H]1Oc2c(NC(=O)C3CCCCC3)cccc2C(=O)N([C@@H](C)CO)C[C@@H]1C | 8.12 µM
67 | N#C[C@H]1[C@@H](c2ccc(C#CCC3CCCC3)cc2)[C@@H](CO)N1C(=O)c1ccccn1 | 25.9 µM
68 | COC(=O)C1=C(C)N(Cc2ccc(F)cc2)C(=S)NC1c1cccc(F)c1 (stereo not drawn) | 22.1 µM
